Test results from patent publication US8012956B2, “Tropane compounds” (Exelixis, Inc., priority 2007, dated 2011).
pIC50: −log10 of the molar value.

Biological target: HSP90 (Homo sapiens, UniProt P07900)
Assay: HSP90 inhibition (HSP90 IC50)
Type: biochemical

Structure (SMILES)	pIC50
COc1cccc(C(=O)N[C@H]2C[C@H]3CC[C@@H](C2)N3c2ccc(C(=O)NCc3ccccc3Cl)cn2)c1C [N-[(2-chlorophenyl)methyl]-6-[3-endo-({[2-methyl-3-(methyloxy)phenyl]carbonyl}amino)-8-azabicyclo[3.2.1]oct-8-yl]pyridine-3-carboxamide]	> 6.30
COc1cccc(C(=O)N[C@H]2C[C@H]3CC[C@@H](C2)N3c2ccc(C(=O)NCc3ccccc3F)cn2)c1C [N-[(2-fluorophenyl)methyl]-6-[3-endo-({[2-methyl-3-(methyloxy)phenyl]carbonyl}amino)-8-azabicyclo[3.2.1]oct-8-yl]pyridine-3-carboxamide]	> 6.30
COc1cccc(C(=O)NC2CC3CCC(C2)N3c2ccc(C(=O)NC[C@H](C)O)cn2)c1C (stereo partly drawn) [N-[(2S)-2.hydroxypropyl]-6-[3-endo-({[2-methyl-3-(methyloxy)phenyl]carbonyl}amino)-8-azabicyclo[3.2.1]oct-8-yl]pyridine-3-carboxamide]	5.00 to 5.70
CCN(CC)CCOc1cccc(CNC(=O)c2ccc(N3[C@@H]4CC[C@H]3C[C@@H](NC(=O)c3cccc(OC)c3C)C4)nc2)c1 [N-[(3-{[2-(diethylamino)ethyl]oxy}pheny)methyl]-6-[3-endo-({[2-methyl-3-(methyloxy)phenyl]carbonyl}amino)-8-azabicyclo[3.2.1]oct-8-yl]pyridine-3-carboxamide]	> 6.30
COc1cccc(C(=O)N[C@H]2C[C@H]3CC[C@@H](C2)N3c2ccc(C(=O)NCc3ccc(Br)cc3)cn2)c1C [N-[(4-bromophenyl)methyl]-6-[3-endo-({[2-methyl-3-(methyloxy)phenyl]carbonyl}amino)-8-azabicyclo[3.2.1]oct-8-yl]pyridine-3-carboxamide]	6.00 to 6.30
CCN(CC)CCOc1ccc(CNC(=O)c2ccc(N3[C@@H]4CC[C@H]3C[C@@H](NC(=O)c3cccc(OC)c3C)C4)nc2)cc1 [N-[(4-{[2-(diethylamino)ethyl]oxy}phenyl)methyl]-6-[3-endo-({[2-methyl-3-(methyloxy)phenyl]carbonyl}amino)-8-azabicyclo[3.2.1]oct-8-yl]pyridine-3-carboxamide]	> 6.30
COc1cccc(C(=O)N[C@H]2C[C@H]3CC[C@@H](C2)N3c2ccc(C(=O)NC3CCC3)cn2)c1C [N-cyclobutyl-6-[3-endo-({[2-methyl-3-(methyloxy)phenyl]carbonyl}amino)-8-azabicyclo[3.2.1]oct-8-yl]pyridine-3-carboxamide]	6.00 to 6.30
COc1cccc(C(=O)N[C@H]2C[C@H]3CC[C@@H](C2)N3c2ccc(C(=O)NC3CCCCC3)cn2)c1C [N-cyclohexyl-6-[3-endo-({[2-methyl-3-(methyloxy)phenyl]carbonyl}amino)-8-azabicyclo[3.2.1]oct-8-yl]pyridine-3-carboxamide]	6.00 to 6.30
COc1cccc(C(=O)N[C@H]2C[C@H]3CC[C@@H](C2)N3c2ccc(C(=O)NC3CCCC3)cn2)c1C [N-cyclopentyl-6-[3-endo-({[2-methyl-3-(methyloxy)phenyl]carbonyl}amino)-8-azabicyclo[3.2.1]oct-8-yl]pyridine-3-carboxamide]	6.00 to 6.30
CCNC(=O)c1ccc(N2[C@@H]3CC[C@H]2C[C@@H](NC(=O)c2cccc(OC)c2C)C3)nc1 [N-ethyl-6-[3-endo-({[2-methyl-3-(methyloxy)phenyl]carbonyl}amino)-8-azabicyclo[3.2.1]oct-8-yl]pyridine-3-carboxamide]	6.00 to 6.30
COc1cccc(C(=O)N[C@H]2C[C@H]3CC[C@@H](C2)N3c2ccc(C(=O)NO)cn2)c1C [N-hydroxy-6-[3-endo-({[2-methyl-3-(methyloxy)phenyl]carbonyl}amino)-8-azabicyclo[3.2.1]oct-8-yl]pyridine-3-carboxamide]	5.00 to 5.70
COc1ccc(C(C)NC(=O)c2ccc(N3[C@@H]4CC[C@H]3C[C@@H](NC(=O)c3cccc(OC)c3C)C4)nc2)cc1OC (stereo partly drawn) [N-{1-[3,4-bis(methyloxy)phenyl]ethyl}-6-[3-endo-({[2-methyl-3-(methyloxy)phenyl]carbonyl}amino)-8-azabicyclo[3.2.1]oct-8-yl]pyridine-3-carboxamide]	6.00 to 6.30
COc1cccc(C(=O)N[C@H]2C[C@H]3CC[C@@H](C2)N3c2ccc(C(=O)NCCOC(C)C)cn2)c1C [N-{2-[(1-methylethyl)oxy]ethyl}-6-(3-endo-({[2-methyl-3-(methyloxy)phenyl]carbonyl}amino)-8-azabicyclo[3.2.1]oct-8-yl]pyridine-3-carboxamide]	5.00 to 5.70
COc1cccc(C(=O)N[C@H]2C[C@H]3CC[C@@H](C2)N3c2ccc(C(=O)NCCCOC(C)C)cn2)c1C [N-{3-[(1-methylethyl)oxy]propyl}-6-[3-endo-({[2-methyl-3-(methyloxy)phenyl]carbonyl}amino)-8-azabicyclo[3.2.1]oct-8-yl]pyridine-3-carboxamide]	5.70 to 6.00
Cc1cc(C(N)=O)c(CC(C)C)cc1C(=O)N[C@H]1C[C@H]2CC[C@@H](C1)N2c1ccc(C(=O)C2CC2)cn1 [N-{8-(5-(cyclopropylcarbonyl)pyridin-2-yl]-8-azabicyclo[3.2.1]oct-3-endo-yl}-2-methyl-5-(2-methylpropyl)benzene-1,4-dicarboxamide]	> 6.30
CCC(Nc1cc(C(=O)N[C@H]2C[C@H]3CC[C@@H](C2)N3c2ccc(C(=O)C3CC3)cn2)c(C)cc1C(N)=O)C1CC1 (stereo partly drawn) [N-{8-(5-(cyclopropylcarbonyl)pyridin-2-yl]-8-azabicyclo[3.2.1]oct-3-endo-yl}-5-[(1-cyclopropylpropyl)amino]-2-methylbenzene-1,4-dicarboxamide]	> 6.30

The remaining lines, values ahead:

pIC50	Structure (SMILES)
> 6.30	COc1cccc(C(=O)N[C@H]2C[C@H]3CC[C@@H](C2)N3c2ccc(C(=O)NCc3c(F)ccc(F)c3Cl)cn2)c1C [N-[(2-chloro-3,6-difluorophenyl)methyl]-6-[3-endo-({[2-methyl-3-(methyloxy)phenyl]carbonyl}amino)-8-azabicyclo[3.2.1]oct-8-yl]pyridine-3-carboxamide]
6.00 to 6.30	COc1cccc(C(=O)N[C@H]2C[C@H]3CC[C@@H](C2)N3c2ccc(C(=O)NCc3c(F)ccc(C)c3Cl)cn2)c1C [N-[(2-chloro-6-fluoro-3-methylphenyl)methyl]-6-[3-endo-({[2-methyl-3-(methyloxy)phenyl]carbonyl}amino)-8-azabicyclo[3.2.1]oct-8-yl]pyridine-3-carboxamide]
> 6.30	COc1cccc(C(=O)N[C@H]2C[C@H]3CC[C@@H](C2)N3c2ccc(C(=O)NCc3c(F)cccc3Cl)cn2)c1C [N-[(2-chloro-6-fluorophenyl)methyl]-6-[3-endo-({[2-methyl-3-(methyloxy)phenyl]carbonyl}amino)-8-azabicyclo[3.2.1]oct-8-yl]pyridine-3-carboxamide]
> 6.30	COc1cccc(C(=O)N[C@H]2C[C@H]3CC[C@@H](C2)N3c2ccc(C(=O)NCc3ccc(F)c(F)c3)cn2)c1C [N-[(3,4-difluorophenyl)methyl]-6-[3-endo-({(2-methyl-3-(methyloxy)phenyl]carbonyl}amino)-8-azablcyclo[3.2.1]oct-8-yl]pyridine-3-carboxamide]
5.00 to 5.70	COc1cccc(C(=O)N[C@H]2C[C@H]3CC[C@@H](C2)N3c2ccc(C(=O)NCc3cccc(Cl)c3)cn2)c1C [N-[(3-chlorophenyl)methyl]-6-[3-endo-({[2-methyl-3-(methyloxy)phenyl]carbonyl}amino) 8-azabicyclo[3.2.1]oct-8-yl]pyridine-3-carboxamide]
5.70 to 6.00	COc1cccc(C(=O)N[C@H]2C[C@H]3CC[C@@H](C2)N3c2ccc(C(=O)NCc3cccc(F)c3)cn2)c1C [N-[(3-fluorophenyl)methyl]-6-[3-endo-({[2-methyl-3-(methyloxy)phenyl]carbonyl}amino)-8-azabicyclo[3.2.1]oct-8-yl]pyridine-3-carboxamide]
6.00 to 6.30	COc1cccc(C(=O)N[C@H]2C[C@H]3CC[C@@H](C2)N3c2ccc(C(=O)NCc3ccc(Cl)cc3)cn2)c1C [N-[(4-chlorophenyl)methyl]-6-[3-endo-({[2-methyl-3-(methyloxy)phenyl]carbonyl}amino)-8-azabicyclo[3.2.1]oct-8-yl]pyridine-3-carboxamide]
> 6.30	COc1cccc(C(=O)N[C@H]2C[C@H]3CC[C@@H](C2)N3c2ccc(C(=O)NCc3ccc(F)cc3)cn2)c1C [N-[(4-fluorophenyl)methyl]-6-[3-endo-({[2-methyl-3-(methyloxy)phenyl]carbonyl}amino)-8-azabicyclo[3.2.1]oct-8-yl]pyridine-3-carboxamide]
> 6.30	COc1cccc(C(=O)N[C@H]2C[C@H]3CC[C@@H](C2)N3c2ccc(C(=O)NCc3ccc(Cl)nc3)cn2)c1C [N-[(6-chloropyridin-3-yl)methyl]-6-[3-endo-({[2-methyl-3-(methyloxy)phenyl]carbonyl}amino)-8-azabicycio[3.2.1]oct-8-yl]pyridine-3-carboxamide]
6.00 to 6.30	COc1cccc(C(=O)N[C@H]2C[C@H]3CC[C@@H](C2)N3c2ccc(C(=O)NC3CNC3)cn2)c1C [N-azetidin-3-yl-6-[3-endo-({[2-methyl-3-(methyloxy)phenyl]carbonyl}amino)-8-azabicyclo[3.2.1]oct-8-yl]pyridine-3-carboxamide]
6.00 to 6.30	CCCCNC(=O)c1ccc(N2[C@@H]3CC[C@H]2C[C@@H](NC(=O)c2cccc(OC)c2C)C3)nc1 [N-butyl-6-[3-endo-({[2-methyl-3-(methyloxy)phenyl]carbonyl}amino)-8-azabicyclo[3.2.1]oct-8-yl]pyridine-3-carboxamide]
5.70 to 6.00	COc1cccc(C(=O)N[C@H]2C[C@H]3CC[C@@H](C2)N3c2ccc(C(=O)NC3CC3)cn2)c1C [N-cyclopropyl-6-[3-endo-({[2-methyl-3-(methyloxy)phenyl]carbonyl}amino)-8-azabicyclo[3.2.1]oct-8-yl]pyridine-3-carboxamide]
5.70 to 6.00	CNC(=O)c1ccc(N2[C@@H]3CC[C@H]2C[C@@H](NC(=O)c2cccc(OC)c2C)C3)nc1 [N-methyl-6-[3-endo-({[2-methyl-3-(methyloxy)phenyl]carbonyl}amino)-8-azabicyclo[3.2.1]oct-8-yl]pyridine-3-carboxamide]
5.00 to 5.70	COc1ccc(CCNC(=O)c2ccc(N3[C@@H]4CC[C@H]3C[C@@H](NC(=O)c3cccc(OC)c3C)C4)nc2)cc1OC [N-{2-[3,4-bis(methyloxy)phenyl]ethyl}-6-[3-endo-({[2-methyl-3-(methyloxy)phenyl]carbonyl}amino)-8-azabicyclo[3.2.1]oct-8-yl]pyridine-3-carboxamide]
